In patent US10364256B2 (GlaxoSmithKline Intellectual Property Development Limited, priority 2015, dated 2019):

What was measured:
[1] = system: NQO1 specific enzyme activity in BEAS-2B cells (marker for NRF2 activation); experiment: BEAS-2B NQO1 MTT Assay; format: cell-based; settings: Homo sapiens, compound incubated 48 hours, read-out: EC50 (NQO1 specific enzyme activity induction)
Summary of the method: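 BEAS-2B cells treated with compound for 48 h at 37 °C, then lysed; NQO1 activity in lysates measured kinetically by MTT reduction at A570 over 30 min. pEC50 from 3-parameter fit of ΔOD/min versus log concentration; lysate also taken for Cell Titer Glo.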

[2] = molecular target: T1, Keap1 Kelch domain (321-609) / TAMRA-labeled 16mer NRF2 peptide (ETGE motif) (Homo sapiens, UniProt Q14145); experiment: NRF2-Keap1 FP Assay (Keap1 Kelch fluorescence polarization); format: binding; settings: 20 nM Keap1 (321-609), 8 nM Tamra labeled peptide
T1 construct: the Kelch domain (321-609) of Keap1 is used
T1 sequence (Q14145 321-609): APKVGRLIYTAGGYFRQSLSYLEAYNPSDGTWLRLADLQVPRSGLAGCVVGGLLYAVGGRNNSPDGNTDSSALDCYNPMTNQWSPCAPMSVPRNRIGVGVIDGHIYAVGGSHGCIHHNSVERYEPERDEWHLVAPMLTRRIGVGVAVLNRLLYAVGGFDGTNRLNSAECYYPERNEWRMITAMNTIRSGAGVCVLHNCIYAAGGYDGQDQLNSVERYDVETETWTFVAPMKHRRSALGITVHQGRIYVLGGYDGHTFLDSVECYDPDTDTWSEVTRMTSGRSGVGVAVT
Summary of the method: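 Compound dilutions (3-fold) were incubated 1 hr at room temperature with 20 nM Keap1 Kelch (321-609) and 8 nM TAMRA-labeled ETGE 16mer peptide. Buffer was 50 mM Tris pH 8.0, 100 mM NaCl, 5 mM MgCl2, 1 mM DTT, 2 mM CHAPS, 0.005% BSA. Fluorescence polarization (mP) was normalized to controls and fitted with a four-parameter equation to give pIC50.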

[3] = molecular target: T2, full length Keap1 protein / full length NRF2 protein (Homo sapiens, UniProt Q14145); experiment: NRF2-Keap1 TR-FRET Assay; format: binding; settings: 25 nM Keap1-FlagHis and 50 nM biotin-NRF2 added
T2 construct: full length NRF2 protein and full length Keap1 protein (Keap1 exists a dimer) are used; His
T2 sequence (Q14145 whole entry): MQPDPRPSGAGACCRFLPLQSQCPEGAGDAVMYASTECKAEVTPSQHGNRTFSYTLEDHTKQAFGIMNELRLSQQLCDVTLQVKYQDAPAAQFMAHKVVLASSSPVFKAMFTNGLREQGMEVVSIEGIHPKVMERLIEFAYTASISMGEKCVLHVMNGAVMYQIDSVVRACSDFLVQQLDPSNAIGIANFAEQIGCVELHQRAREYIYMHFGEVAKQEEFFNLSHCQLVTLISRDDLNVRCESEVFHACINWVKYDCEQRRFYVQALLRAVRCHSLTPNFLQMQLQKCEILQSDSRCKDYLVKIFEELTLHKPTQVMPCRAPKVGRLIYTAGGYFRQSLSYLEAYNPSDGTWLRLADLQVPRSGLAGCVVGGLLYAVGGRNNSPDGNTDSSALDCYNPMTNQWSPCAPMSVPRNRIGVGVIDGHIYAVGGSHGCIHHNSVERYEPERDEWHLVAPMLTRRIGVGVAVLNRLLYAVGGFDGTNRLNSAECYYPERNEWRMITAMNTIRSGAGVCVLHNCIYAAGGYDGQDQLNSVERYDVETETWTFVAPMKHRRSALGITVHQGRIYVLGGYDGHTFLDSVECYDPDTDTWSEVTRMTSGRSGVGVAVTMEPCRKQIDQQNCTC
Summary of the method: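 Full-length Keap1-FlagHis preincubated with compound 2.25 h at 37 °C, then biotin-NRF2 added for 1.25 h at 4 °C, in Tris pH 8.0 with MgCl2, NaCl, BSA, DTT, CHAPS. TR-FRET 665/615 nm ratio normalised to with- and without-protein 1% DMSO controls; pIC50 from four-parameter fit.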

| IC50 [2] [µM] | IC50 [3] [µM] | SMILES | EC50 [1] [µM] |
| --- | --- | --- | --- |
| 0.1 to 1 | 1 to 10 | O=C(O)c1cnn(-c2cccc(-c3cccc(-n4ncc5c4C(C4CC4)CC5)c3)c2)c1C1CC1 (stereo not drawn) [Example 207, 5-Cyclopropyl-1-(3′-(6-cyclopropyl-5,6-dihydrocyclopenta[c]pyrazol-1(4H)-yl)-[1,1′-biphenyl]-3-yl)-1H-pyrazole-4-carboxylic Acid] | 1 to 10 |
| > 10 | 10 to 100 | Cc1nc(-c2cccc(-c3cccc(-n4ncc(C(=O)O)c4C4CC4)c3)c2)no1 [Example 211, 5-Cyclopropyl-1-(3′-(5-methyl-1,2,4-oxadiazol-3-yl)-[1,1′-biphenyl]-3-yl)-1H-pyrazole-4-carboxylic acid] | 1 to 10 |
| 0.01 to 0.1 | 0.1 to 1 | Cn1cc(C2CC2c2c(C(=O)O)cnn2-c2cccc(-c3cccc(C(O)C4CCCCC4)c3)c2)nn1 (stereo not drawn) [Example 220, 1-(3′-(Cyclohexyl(hydroxy)methyl)-[1,1′-biphenyl]-3-yl)-5-(2-(1-methyl-1H-1,2,3-triazol-4-yl)cyclopropyl)-1H-pyrazole-4-carboxylic acid] | 1 to 10 |
